Entries after “also recorded” stand apart in the source; their conditions may differ.

For experiment [1], the system named is angiotensin II-induced hypertension. The experiment is described as follows: Angiotensin II-induced hypertension, arterial blood pressure. Format: in vivo, rats. The protocol: Measurement of arterial blood pressure: Rats are briefly anaesthetized (ketamine 80 mg/kg ip plus xylazine 10 mg/kg ip) and a saline-filled cannula is inserted in a femoral artery. The cannula is connected to a pressure transducer and a chart recorder. When arterial pressure is observed to be stable (within 5 minutes) mean arterial pressure is calculated and recorded.
Angiotensin II-induced experimental hypertension: On Day 0, rats are briefly anaesthetized (ketamine 80 mg/kg ip plus xylazine 10 mg/kg ip) and an osmotic minipump containing either saline or suramin is implanted subcutaneously. The dose rate of suramin is 300 mg/kg per 14 days. On Day 7, rats are again anaesthetized and another minipump containing saline or angiotensin II is implanted subcutaneously. The dose rate of angiotensin II is 5 mg/kg per 7 days. On Day 14, each rat is again anaesthetized and a cannula was inserted into a femoral artery for measurement of blood pressure. Angiotensin II causes a large increase in mean arterial pressure (of approx. 60-80 mmHg) in control rats.
On Day 0, rats were briefly anaesthetized and an osmotic minipump containing either saline or suramin was implanted subcutaneously. The dose rate of suramin was 300 mg/kg per 14 days. On Day 7, rats were again anaesthetized and another minipump containing saline or angiotensin II was implanted subcutaneously. The dose rate of angiotensin II was 5 mg/kg per 7 days. On Day 14, each rat was again anaesthetized and a cannula was inserted into a femoral artery for measurement of blood pressure. Angiotensin II caused a large increase in blood pressure in rats pretreated with saline. In contrast, the increase in blood pressure by angiotensin II was prevented by approximately 60% in rats pretreated with suramin.

In experiment [2] the test system is atherosclerotic lesion formation in ApoE−/− mice. Nature of the experiment: Atherosclerotic lesion formation in aortas of fat-fed ApoE mutant mice. The following applies: high-fat diet, weekly s.c. suramin for 4 months, vs saline. The experiment is classed as in vivo, mouse. As for the experimental part:
ApoE^−/− mice: Whole aortas are isolated and cut open via an incision along the ventral wall [Jiang et al., 2001, supra]. Tissues are rinsed with 60% v/v isopropanol and stained with oil red O (0.5%) for 10 minutes at room temperature. After staining, tissues are rinsed in 60% v/v sopropanol and preserved in 10% v/v neutral buffered formalin. The en face surface of the aorta is then imaged and lesion area (red-stained) quantified using MCID imaging analysis software.
Twelve-week-old ApoE mutant mice were fed a high fat diet for a further 4 months. During this 4 month period, the mice were given weekly subcutaneous injections of saline or suramin. Specifically, mice were initially dosed with two weekly injections of 300 mg/kg suramin. Four weeks later a 25 mg/kg dose of suramin was administered, and then weekly doses of 15 mg/kg suramin were administered for a further 11 weeks. At the end of the treatment period, mice were killed by anaesthetic overdose and the aorta was removed, cleaned of adherent fat on the adventitial surface, and then cut longitudinally along the entire length. […] The en face surface of the aorta was then imaged and lesion area (red-stained) quantified and expressed as a percent of total luminal surface area for each of: total aorta, thoracic aorta, abdominal aorta, and aortic arch. […]

For experiment [3], the system named is cerebral artery NADPH-oxidase activity. The experiment is described as follows: NADPH-induced superoxide production by the rat basilar artery in vitro after subarachnoid haemorrhage, chronic in vivo treatment. To be noted: FIG. 13. The arrangement: species or system Sprague-Dawley rats. As for the experimental part: Subarachnoid hemorrhage: On Day 0, rats are briefly anaesthetized (pentobarbital 50 mg/kg ip) and an osmotic minipump containing either saline or suramin is implanted subcutaneously. The dose rate of suramin is 300 mg/kg per 7 days. On Day 5, rats are again anaesthetized and 0.3 ml of blood is withdrawn from a femoral artery and injected into the cerebrospinal fluid around the ventral surface of the brain via the cisterna magna. In some control rats, saline is injected into the cerebrospinal fluid instead of arterial blood. The rat is allowed to recover for a further 2 days, and is then again anaesthetized on Day 7 for study.
On Day 0, rats were briefly anaesthetized and an osmotic minipump containing either saline or suramin was implanted subcutaneously. The dose rate of suramin was 30 or 300 mg/kg per 7 days. On Day 5, rats were again anaesthetized and 0.3 ml of blood was withdrawn from a femoral artery and injected into the cerebrospinal fluid around the ventral surface of the brain via the cisterna magna. In some rats, saline was injected into the cerebrospinal fluid instead of arterial blood. […]
The brain was removed and the basilar artery was isolated and then incubated with 5 micromolar lucigenin, 100 micromolar NADPH and 3 millimolar diethyldithiocarbamate. Superoxide production was measured using lucigenin-enhanced chemiluminescence.

With `Cc1ccc(C(=O)Nc2ccc(S(=O)(=O)O)c3cc(S(=O)(=O)O)cc(S(=O)(=O)O)c23)cc1NC(=O)c1cccc(NC(=O)Nc2cccc(C(=O)Nc3cc(C(=O)Nc4ccc(S(=O)(=O)O)c5cc(S(=O)(=O)O)cc(S(=O)(=O)O)c45)ccc3C)c2)c1` [suramin], the “mean arterial blood pressure of control rats” value in experiment [1] (suramin 150 mg/kg s.c. per week for 2 weeks, no angiotensin II, ketamine-xylazine anaesthesia, FIG. 15) is reported as “no effect”. Further, the “prevention of the increase in blood pressure by angiotensin II” value in experiment [1] (suramin 300 mg/kg per 14 days, angiotensin II 5 mg/kg per 7 days, Day 14) is given as “approximately 60%”. The “increase in arterial pressure during angiotensin II administration (in words)” value in experiment [1] (suramin 1 week prior to and during 1 week of angiotensin II 5 mg/kg s.c., FIG. 15) is recorded as “smaller increase”. Also, the “atherosclerotic lesion area: total aorta, thoracic aorta, abdominal aorta” value in experiment [2] (FIG. 12) is “markedly smaller lesion areas; also recorded: smaller lesion area”. In experiment [2] (FIG. 12b), the “lesion size in the aortic arch” value is “no effect”. Besides, the “NADPH (100 μM)-driven superoxide production by isolated basilar artery, control rats” value in experiment [3] (suramin 30-300 mg/kg over 7 days, control rats without SAH) is “no effect”. Also, in experiment [3] (suramin 30 or 300 mg/kg per 7 days s.c. minipump, rats subjected to SAH), the “NADPH-driven superoxide production by basilar artery 2 days after SAH” value was “not different from levels measured in non-operated control rats; also recorded: prevents the increase”.

Values taken from patent publication US20070037883A1, “Therapeutic compositions” (priority 2003, published 2007).
